Measured values reported in patent US7223797B2, “Meldonium salts, method of their preparation and pharmaceutical composition on their basis” (Joint Stock Company “Grindeks”, priority 2003, dated 2007).

Key:
[1] = Sample hygroscopicity test: H2O content before and after 24 hours at 100% humidity; format: physicochemical; conditions: for H2O content after 24 hours maintenance at 100% humidity: closed vessel over water; for H2O content after 24 hours maintenance at 100% humidity / Initial H2O content in the sample: Fischer titration; for Initial H2O content in the sample: before the test; for hygroscopicity (in words): qualitative statement
Experimental: Sample hygroscopicity was tested by H2O content determination before the test and after 24 hours maintenance at 100% humidity (keeping in a closed vessel over water). On such conditions, Meldonium absorbs 10% water (as to mass increase) during 24 hours. Water content was determined by titration by Fischer's method; in cases of syrup formation water content is determined by sample mass increase.

[2] = humans; cited from earlier work
[3] = Thermal / storage stability; format: physicochemical; conditions: qualitative statement
[4] = rats; cited from earlier work

Compound	H2O content after 24 hours maintenance at 100% humidity [1]	Initial H2O content in the sample [1]	Sample mass increase due to absorbed water ([1]; 24 hours at 100% humidity)	other results
C[N+](C)(C)NCCC(=O)O.C[N+](C)(C)NCCC(=O)O.NCCS(=O)(=O)[O-].NCCS(=O)(=O)[O-].O.O.O [Meldonium 2-aminoethane sulfonate (taurate; 1:1; ×1.5H2O)]	17.0854%	9,4824%		
C[N+](C)(C)NCCC(=O)O.NC(CC(=O)O)C(=O)[O-].O.O [Meldonium L-(+)-aspartate (1:1; ×2H2O)]		12.5%	18%	
CN(CC(=O)O)C(=N)N.C[N+](C)(C)NCCC(=O)[O-].O.O.O [Meldonium creatinate (1:1; ×3H2O)]		15.8%	18%	
C[N+](C)(C)NCCC(=O)O.O=C([O-])C(Cl)Cl [Meldonium dichloroacetate (1:1)]		1.17%	12%	
C[N+](C)(C)NCCC(=O)[O-].O=C(O)C=CC(=O)O [Meldonium fumarate (1:1)]	remains unchanged	0.18%		
C[N+](C)(C)NCCC(=O)[O-].C[N+](C)(C)NCCC(=O)[O-].O=C(O)C=CC(=O)O [Meldonium fumarate (2:1)]	13.4707%	1.5136%		
CC(O)C(=O)O.C[N+](C)(C)NCCC(=O)[O-] [Meldonium lactate (1:1)]				hygroscopicity (in words) [1]: hygroscopic
C[N+](C)(C)NCCC(=O)O.O.O.O=C([O-])CC(O)(CC(=O)[O-])C(=O)[O-].[Mg+2] [Meldonium magnesium citrate (1:1:1; ×2H2O)]		9.45%		State of the sample after maintenance at 100% humidity ([1]; 24 hours at 100% humidity): the sample diffused
C[N+](C)(C)NCCC(=O)[O-].O.O.O=C([O-])CCC(=O)[O-].[Mg+2] [Meldonium magnesium succinate (1:1:1; ×2H2O)]		10.1215%	20%	
C[N+](C)(C)NCCC(=O)[O-].C[N+](C)(C)NCCC(=O)[O-].O=C(O)C=CC(=O)O [Meldonium maleate (2:1)]		1.3595%	18%	
C[N+](C)(C)NCCC(=O)[O-].O=C(O)C(O)C(O)C(O)C(O)C(=O)O (stereo not shown) [Meldonium mucate (galactarate; 1:1)]	12.8%	1.98%		
C[N+](C)(C)NCCC(=O)[O-].C[N+](C)(C)NCCC(=O)[O-].O.O=C(O)C(O)C(O)C(O)C(O)C(=O)O (stereo not shown) [Meldonium mucate (galactarate; 2:1; ×H2O)]	7.6830%	3.0414%		
C[N+](C)(C)NCCC(=O)[O-] [Meldonium orotate (1:1)]	remains unchanged	0.3919%		
C[N+](C)(C)NCCC(=O)O.O=C([O-])C(=O)O [Meldonium oxalate (1:1)]	3.1211%	0.1661%		
C[N+](C)(C)NCCC(=O)[O-] [Meldonium, 3-(2,2,2-trimethylhydrazinium) propionate]				half-elimination period [2]: 4 to 10 h; stability (in words) [3]: not very stable; half-elimination period compared with humans [4]: longer
C[N+](C)(C)NCCC(=O)[O-] [anhydrous form of Meldonium, reference compound]				stability (in words) [3]: unstable; hygroscopicity (in words) [1]: extremely hygroscopic
Cl [hydrogen chloride, reference compound]				hygroscopicity (in words) [1]: hygroscopic
Meldonium sulfate				hygroscopicity (in words) [1]: hygroscopic
acetate [reference compound]				hygroscopicity (in words) [1]: hygroscopic
citrate				hygroscopicity (in words) [1]: hygroscopic

Continued, in another order:

H2O content after 24 hours maintenance at 100% humidity [1]	Initial H2O content in the sample [1]	Sample mass increase due to absorbed water ([1]; 24 hours at 100% humidity)	Compound	other results
	1.71%	9%	C[N+](C)(C)NCCC(=O)O.O.O=C([O-])c1cc2ccccc2c(Cc2c(O)c(C(=O)O)cc3ccccc23)c1O [Meldonium pamoate (1:1; ×H2O)]	
remains unchanged	0.0762%		C[N+](C)(C)NCCC(=O)O.O=P([O-])(O)O [Meldonium phosphate (1:1)]	
	1.4189%	20%	C[N+](C)(C)NCCC(=O)O.O=S(=O)([O-])O [Meldonium sulfate (1:1)]	
	0.313%	11.8%	C[N+](C)(C)NCCC(=O)O.C[N+](C)(C)NCCC(=O)O.O=S(=O)([O-])[O-] [Meldonium sulfate (2:1)]	
4.6844%	0.387%		C[N+](C)(C)NCCC(=O)O.O=C([O-])C=CC(=O)O [Meldoniuma maleate (1:1)]	
